Literature values in patent publication US20240398765A1, “TRANSDERMAL THERAPEUTIC SYSTEM FOR THE TRANSDERMAL ADMINISTRATION OF TIZANIDINE” (LTS LOHMANN THERAPIE-SYSTEME AG, priority 2021, published 2024).
Counter-ions that a name gives are not always drawn.

Details: background statement, no test described

permeation through the skin	Structure (SMILES)
slightly permeates through the skin	Clc1ccc2nsnc2c1NC1=NCCN1 [tizanidine in the form of its free base, 5-chloro-4-(2-imidazolin-2-ylamino)-2,1,3-benzothiadiazole]
does not permeate through the skin	Clc1ccc2nsnc2c1NC1=NCCN1 [tizanidine in the form of its hydrochloride]
